The subject of assay [1] is iPSC-derived CM. Put plainly: qPCR of maturation markers with EC-conditioned medium / EC co-culture and ET or notch inhibition. The class given is cell-based, human. The note with it: 20 μM, EC and CM co-cultured, 7 days. How it is done:
EC and iPSC-derived CMs were plated onto Matrigel Growth Factor Reduced (BD) coated dishes. Cells were fed with RPMI media supplemented with B27 (Life Technologies) and Endothelial Cell Growth Supplement (ECGS; BD Biosciences) every 2-3 days. EC-conditioned medium was collected after 1-3 days of EC growth. Endothelin inhibition was achieved by adding 10 nM PD145065 inhibitor (EMD Millipore) and notch inhibition with 20 μM DAPT (Sigma) at every media change. Cells were fed on days 1 and 4 and then harvested after 7 days.
RNA was extracted using TRIzol (Life Technologies) according to manufacturer's instructions. Three micrograms of RNA was used to generate cDNA using the iSCRIPT cDNA Synthesis Kit (Bio-Rad). The reaction mix included SYBR green chemistry and primers generated by IDT Technologies. The samples were analyzed using an iQ5 Real Time PCR Detection System (Bio-Rad). The control sample, compared to EC/iPSC-derived CM co-culture, consisted of a mix of equal parts EC and iPSC-derived CM RNA that were isolated separately. (n=3; *p<0.05 **p<0.01 ***p<0.001, Student's t-test)
(Quantitative PCR measures a nucleic acid by following its amplification.)

The test system of assay [2] is iPSC-derived CM. Particulars: endothelial cells/cardiomyocyte co-culture; cited from earlier work.
The test system of assay [3] is iPSC-derived cardiomyocytes. Put plainly: Pharmacological treatment of iPSC-derived cardiomyocytes (beat rate, calcium transient). The class given is cell-based, human. As for the experimental part:
The iPSC-derived cardiomyocytes have been engineered to express a calcium indicator (GCaMP6f reporter) that emits fluorescence in the presence of cytosolic calcium. Calcium transients were measured using an epifluorescent microscope with an inverted 10× objective (IX70 Olympus, Tokyo, Japan). Images were captured using a SPOT Idea 3.0 megapixel color fluorescent camera and SPOT acquisition software (SPOT Imaging Solutions, Sterling Heights, Mich.). The cells were placed in a 37° C. heated stage during imaging. The video was captured at 33 frames/second with 8×8 binning. ImageJ was used to process and extract the temporal fluorescence intensity of the acquired video data. Subsequent data were analyzed using MATLAB software (MathWorks, Torrance, Calif.). A customized algorithm determined the troughs and peaks of each calcium wave and measured the amplitude, max upslope, max downslope, time to 50% decay, and beat rate. Additional measurements included the effect of caffeine on the slope of amplitude change. Baseline and drug recordings were taken before and after 10 min incubation with the drug(s) on the 37° C. stage. All recordings were taken over 1 min. The order of the β-adrenergic drug treatments was baseline, 1 μM isoproterenol (Sigma #16504), and 1 μM Isoproterenol+10 μM Propranolol (Sigma # P0884). The effect of caffeine (Tocris #2793) on calcium signaling was assessed at a final concentration of 20 mM. The video recordings were acquired before and during the addition of caffeine.

The source of these data is US10837001B2, “Cardiomyocyte maturation platform” (The Regents of the University of California, priority 2016, dated 2020).

The structures appear in SMILES notation.

On to `C[C@H](NC(=O)Cc1cc(F)cc(F)c1)C(=O)N[C@H](C(=O)OC(C)(C)C)c1ccccc1` [DAPT], for which, in the assay with iPSC-derived CM [1], the “Maturation markers Junctin, SERCA2a, CaV1.2” value is “decrease”. For the same compound, the cTNT expression entry in the assay with iPSC-derived CM [2] was “decrease”.

As to `Cn1c(=O)c2c(ncn2C)n(C)c1=O` [caffeine], in assay [3] (20 mM, 3D culture vs 2D), the Calcium release result is given as “more rapid release of calcium”, the “Time to maximum calcium concentration” value is “quicker” and the “Upslope (velocity of calcium release)” value is given as “steeper”.

For `CC(C)NCC(O)c1ccc(O)c(O)c1` (centres unmarked) [isoproterenol], the Beat rate entry is listed as “increased their beat rate” in assay [3] (1 μM, 10 min incubation) and “increased beat rate” in assay [3] (cells cultured in 3D compared to cells in 2D culture).

On to `CC(C)NCC(O)COc1cccc2ccccc12` (centres unmarked) [propranolol], for which the Beat rate entry in assay [3] (10 μM added after 1 μM isoproterenol) is “decreased to baseline levels”.
